# Laboratory results published in patent US12678416B2, “L-triiodothyronine (T3) for use in limiting microvascular obstruction” (UNI-PHARMA KLEON TSETIS PHARMACEUTICAL LABORATORIES S.A., priority 2019, dated 2026).
# Entries after “also recorded” stand apart in the source; their conditions may differ.
# How the values were obtained:
# [1] = system: patients after acute myocardial infarction; settings: long-term administration of high doses; cited from earlier work
# [2] = system: STEMI patients after PPCI; test: Thy-REPAIR: ST resolution in electrocardiograms on admission and after PPCI; assay type: in vivo; settings: placebo 34%, p=0.05
# Excerpt: (§1) The invention in particular concerns L-triiodothyronine for use in the treatment as set forth in the appending claims. In the broader sense, the present invention concerns L-triiodothyronine for use in the treatment of microvascular obstruction. Treatment of MVO in this context relates to the lessening of microvascular obstruction in comparison to patients which were not supplied with T3. MVO may be determined on the basis of both Cardiac Magnetic Resonance (CMR) imaging, being performed 7-12 days following primary percutaneous coronary intervention (PPCI) and restoration of ST elevation in electrocardiogram (ECG). Infarct size and ejection fraction was measured by CMR. Infarct size was also assessed enzymatically by measuring levels of troponin in blood.
# (§2) The dose administered is 0.8 μg/kg intravenously bolus starting immediately after successful opening of the culprit vessel has been established in the hemodynamic lab and followed by an infusion of 0.113 μg/kg/h intravenously for 48 hours.
# These unexpected findings concerning MVO were also supported by other measurements. Changes in ST elevation in electrocardiograms before and after PPCI measured as ST restoration (%) are closely correlated with the extent of MVO (FIG. 6).
# STEMI patients [3] = test: Thy-REPAIR: heart rate during hospitalization; assay type: in vivo; settings: during the first 3 days, high dose T3 vs placebo
# Description: (§3) The potential effect of early administration of high dose TH (acute treatment) after an index event has been also investigated in experimental models of ischemia-reperfusion (I/R) using isolated rat heart preparations. […] Thy-REPAIR explores the effects of high-dose T3 treatment intravenously starting immediately after reperfusion and continuing for 48 hours in patients with anterior or anterolateral STEMI undergoing primary PCI. This is a double-blind randomized trial. The primary end point of this study is recovery of myocardial function after 6 months of the index event as this is assessed by Cardiac Magnetic Resonance (CMR) at discharge and at 6 months after acute myocardial infarction. This study also explores the potential effects of T3 treatment on infarct size and cardiac remodeling by assessing changes in LV volumes and geometry.
# as §2
# Despite the possible increase in oxygen consumption, no increase in infarct size (IS) is found with T3 in contrast to the current belief (FIG. 3).
# [4] = Thy-REPAIR phase II study: T3 levels in serum during hospitalization; assay type: in vivo, patients
# Description: as §3, §2
# STEMI patients [5] = test: Thy-REPAIR: troponin levels in blood over time; assay type: in vivo; settings: T3 vs placebo groups
# Excerpt: as §1, §2
# Troponin levels in blood over time are mainly a measure of myocardial injury. According to the present invention, troponin levels are similar between T3 and placebo groups indicating a similar infarct size in accordance with CMR data. Thus, it seems that the effect of T3 on MVO is independent from infarct size. (FIG. 8).
# [6] = system: STEMI patients after PPCI; test: Thy-REPAIR: contrast-enhanced cardiac magnetic resonance (MVO, infarct size, LV function); assay type: in vivo
# Description: as §3, §1, §2
# Actually, cardiac magnetic resonance with gadolinium represents the gold-standard method for detection of MVO in patients with STEMI. MVO can be quantified in each patient as the percentage of left ventricular (LV) myocardium that is not adequately perfused despite restoration of blood flow in the occluded large coronary artery.
# The incidence of MVO was assessed using the value of 0.47% as a cut-off point for patients with large and small extent of MVO as previously described. This analysis was additionally performed and provides a strong evidence about the T3 effect on MVO. In the placebo group (n=9), a large extent of MVO was found in 56% of patients consistent with previous published reports in the literature.
# [7] = system: patients with STEMI and low serum FT3 levels; settings: oral T3 for 6 months, cited from earlier work
# isolated rat heart = settings: ex vivo, cited from earlier work; for myocardial injury as indicated by apoptosis: at the onset of reperfusion
# STEMI patients [8] = test: Thy-REPAIR: left ventricular ejection fraction by echocardiography; assay type: in vivo; settings: early and late after the index event, T3 vs placebo
# Description: FIG. 12: Left ventricular ejection fraction assessed by echocardiography at different time points in STEMI patients treated with placebo and T3
# as §2
# [9] = system: reperfused STEMI patients; settings: high-dose intracoronary, cohort of 247 reperfused STEMI patients; cited from earlier work
compound,measurement,setting,value
N[C@H](Cc1cc(I)c(Oc2cc(I)c(O)c(I)c2)c(I)c1)C(=O)O [D-thyroxine],mortality,[1],increased
"N[C@@H](Cc1cc(I)c(Oc2ccc(O)c(I)c2)c(I)c1)C(=O)O [T3, L-triiodothyronine]",mean ST resolution after PPCI,[2],54%
same,heart rate,STEMI patients [3],non-significant increase
same,T3 levels in serum relative to normal range,[4]; at discharge (7th day),return to normal
same,T3 levels in serum relative to normal range,[4]; for 72 hours,far above normal range
same,concentration at 24 h,"[4]; human, serum, at 24 hours, 0.8 μg/kg iv bolus then 0.113 μg/kg/h iv for 48 hours, placebo 0.79 (0.06), p<0.01",5.5 ng/mL
same,concentration at 48 h,"[4]; human, serum, at 48 hours, 0.8 μg/kg iv bolus then 0.113 μg/kg/h iv for 48 hours, placebo 0.76 (0.06), p<0.01",4.5 ng/mL
same,troponin levels in blood over time,STEMI patients [5],similar
same,extent of mean microvascular obstruction,"[6]; CMR at discharge (7-12 days after the event), T3 vs placebo",less
same,infarct size (IS) by CMR,"[6]; T3 vs placebo, at discharge",no increase; also recorded: similar
same,cardiac function by CMR,"[6]; at 6 months, T3 vs placebo",improvement
same,cardiac function,[6]; at discharge and at 6 months,improved
same,"myocardial function (EF %, LVEDVi and end-systolic volumes by CMR)","[6]; at discharge, T3 vs placebo",improved
same,recovery of function (ejection fraction at 6 months) versus myocardial injury (infarct size by CMR),[6]; correlation in T3 group,independent
same,patients with a large extent of MVO,"[6]; cut-off 0.47%, T3 group n=12, placebo (n=9) 56%, p=0.05",25%
same,regional cardiac dysfunction,"[7]; commenced 72 h after onset of STEMI, max 15 μg/m^2/day, 37 patients",effective in reducing
same,safety of T3 replacement therapy,[7]; commenced 72 h after onset of STEMI,safe
same,left ventricular ejection fraction and myocardial infarct size by cardiac MRI,[7],did not show any benefit
same,myocardial injury as indicated by apoptosis,isolated rat heart,less
same,post-ischemic recovery of function,isolated rat heart; high dose at the onset of reperfusion,enhanced
same,LV ejection fraction by echocardiography,STEMI patients [8],improvement
"N[C@@H](Cc1cc(I)c(Oc2cc(I)c(O)c(I)c2)c(I)c1)C(=O)O [T4, L-thyroxine]",myocardial injury as indicated by apoptosis,isolated rat heart,no effect
Nc1ncnc2c1ncn2[C@@H]1O[C@H](CO)[C@@H](O)[C@H]1O [adenosine],MVO and MI size,[9],failed to reduce
